Test results: patent publication US10183944B2 (Asana Biosciences, LLC, priority 2011, dated 2019)
Where a name gives a salt, the structure may show the parent alone.

target: Syk (356-635 amino acids) catalytic domain (Homo sapiens (Human), UniProt P43405); assay: Inhibition of enzymatic Syk kinase activity (radiometric); type: biochemical; conditions: read-out: IC50 Syk
Text: The objective of this assay was to examine by radiometric method the ability of compounds to inhibit Syk kinase enzyme. Syk is capable of phosphorylating substrates such as VAV, LAT, SLP-76, which in turn activate MAPK, PLCγ signaling pathways. […] This in vitro assay tests the ability of syk to phosphorylate a substrate peptide in the presence of ATP. By using a radio-labeled form of ATP, it is possible to measure the amount of phosphorylation of the substrate. The enzyme transfers a radio-labeled phosphate group from γ32 P labeled ATP to pG4T. Briefly the enzyme was incubated with substrate, radio-labeled & cold ATP and substrate in buffer with or without compounds. At the end of the reaction, the reaction mixture was transferred on to a Multiscreen filter plate and unreacted γ^32P ATP was washed off. The filter plate was dried and the radioactivity was measured on a scintillation counter to estimate the incorporated radioactivity on the substrate. The percent inhibition of activity of the enzyme was calculated by comparing counts in the presence and absence of compounds. […] 2.5 μL of 10% DMSO or compound in 10% DMSO was added to the wells in a 96 well V-bottom plate. Optimized concentration of in-house Syk enzyme (different batches of Syk (356-635) kinase domain) were used at optimized concentrations) ranging from 0.035 ng to 7.5 ng/reaction diluted in assay buffer was added to a total volume of 12.5 μL). Compound and protein were incubated for 30 minutes at room temperature on a plate shaker. Ten μL of a substrate mix containing 100 μM ATP (0.25 μL), γ-P^32-ATP (0.1 μL; 10 μCi/μL), pG4T (0.25 μL; 10 mg/mL) and 1× assay buffer (9.4 μL) was added to all the wells. Samples were incubated at 30° C. for 10 minutes after mixing. The reaction was stopped by the addition of 8N HCl (13 μL) containing 100 mM ATP. Thirty μL of sample was transferred to the center of a 2×2 cm^2 Whatman® P81 chromatography paper. After allowing the sample to dry for one minute, the assay squares were washed 3 times for 5 minutes each in ortho-phosphoric acid (0.5%) and once in acetone. Assay squares were dried for 15 minutes in a 30° C. oven and transferred to 96 well optiplate. Microscint-O® reagent (100 μL, Perkin Elmer) was added to each well, the plate was sealed with Topseal®-A microplates and incubated for 10 minutes at room temperature at very low speed on rocker and the plate was read in the Topcount® NXL instrument. The following calculations were made: Fold induction=radioactivity counts (uncorrected values) in positive control/substrate control.

| Structure (SMILES) | IC50 [nM] |
| --- | --- |
| O=C(c1ccc(Nc2nc(-c3ccccc3)nc3cn[nH]c(=O)c23)cc1)N1CCOCC1 [Example 9, 4-(4-(morpholine-4-carbonyl)phenylamino)-2-phenylpyrimido[4,5-d]pyridazin-5(6H)-one] | > 100 |
| NCC(=O)N1CCN(c2ccc(Nc3nc(-c4ccccc4)nc4cn[nH]c(=O)c34)cc2)CC1 [Example 14, 4-(4-(4-(2-aminoacetyl)piperazin-1-yl)phenylamino)-2-phenylpyrimido[4,5-d]pyridazin-5(6H)-one] | < 10 |
| CN(C)CCN(C)C(=O)c1ccc(Nc2nc(-c3ccccc3)nc3cn[nH]c(=O)c23)cc1 [Example 15, N-(2-(dimethylamino)ethyl)-N-methyl-4-(5-oxo-2-phenyl-5,6-dihydropyrimido[4,5-d]pyridazin-4-ylamino)benzamide] | > 100 |
| O=C1CC2(CCN(c3ccc(Nc4nc(-c5ccccc5)nc5cn[nH]c(=O)c45)cc3)CC2)N1 [Example 16, 4-(4-(2-oxo-1,7-diazaspiro[3.5]nonan-7-yl)phenylamino)-2-phenylpyrimido[4,5-d]pyridazin-5(6H)-one] | > 100 |
| O=c1[nH]ncc2nc(-c3ccccc3)nc(Nc3ccc(N4CCC5(CC4)COC5)cc3)c12 [Example 17, 4-(4-(2-oxa-7-azaspiro[3.5]nonan-7-yl)phenylamino)-2-phenylpyrimido[4,5-d]pyridazin-5(6H)-one] | > 100 |
| CCOC(=O)C1CC12CCN(c1ccc(Nc3nc(-c4ccccc4)nc4cn[nH]c(=O)c34)cc1)CC2 (centres unmarked) [Example 20, ethyl 6-(4-(5-oxo-2-phenyl-5,6-dihydropyrimido[4,5-d]pyridazin-4-ylamino)phenyl)-6-azaspiro[2.5]octane-1-carboxylate] | > 100 |
| O=C(O)C1CC12CCN(Cc1ccc(Nc3nc(-c4ccccc4)nc4cn[nH]c(=O)c34)cc1)CC2 (centres unmarked) [Example 21, 6-(4-(5-oxo-2-phenyl-5,6-dihydropyrimido[4,5-d]pyridazin-4-ylamino)benzyl)-6-azaspiro[2.5]octane-1-carboxylic acid] | > 100 |
| COC(=O)c1ccc(-c2nc(Nc3ccc(N4CCOCC4)cc3)c3c(=O)[nH]ncc3n2)cc1 [Example 29, methyl 4-(4-(4-morpholinophenylamino)-5-oxo-5,6-dihydropyrimido[4,5-d]pyridazin-2-yl)benzoate] | > 100 |
| O=C(O)C1CC12CCN(c1ccc(Nc3nc(N4CCOCC4)nc4cn[nH]c(=O)c34)cc1)CC2 (centres unmarked) [Example 42, 6-(4-((2-morpholino-5-oxo-5,6-dihydropyrimido[4,5-d]pyridazin-4-yl)amino)phenyl)-6-azaspiro[2.5]octane-1-carboxylic acid] | < 100 |
| O=c1[nH]ncc2nc(-c3ccccc3)nc(Nc3cnn(CCN4CCOCC4)c3)c12 [Example 58, 4-((1-(2-morpholinoethyl)-1H-pyrazol-4-yl)amino)-2-phenylpyrimido[4,5-d]pyridazin-5(6H)-one] | > 100 |
| COc1nc(Nc2ccc(CN3CCNCC3)cc2)c2c(=O)[nH]ncc2n1 [Example 61, 2-methoxy-4-((4-(piperazin-1-ylmethyl)phenyl)amino)pyrimido[4,5-d]pyridazin-5(6H)-one hydrochloride] | > 100 |
| O=c1[nH]ncc2nc(-c3ccccc3)nc(Nc3cnn(CCN4CCNCC4)c3)c12 [Example 63, 2-phenyl-4-((1-(2-(piperazin-1-yl)ethyl)-1H-pyrazol-4-yl)amino)pyrimido[4,5-d]pyridazin-5(6H)-one hydrochloride] | > 100 |
| CN1CCN(CCn2cc(Nc3nc(-c4ccccc4)nc4cn[nH]c(=O)c34)cn2)CC1 [Example 64, 4-((1-(2-(4-methylpiperazin-1-yl)ethyl)-1H-pyrazol-4-yl)amino)-2-phenylpyrimido[4,5-d]pyridazin-5(6H)-one] | > 100 |
| CCN1CCN(CCn2cc(Nc3nc(-c4ccccc4)nc4cn[nH]c(=O)c34)cn2)CC1 [Example 65, 4-((1-(2-(4-ethylpiperazin-1-yl)ethyl)-1H-pyrazol-4-yl)amino)-2-phenylpyrimido[4,5-d]pyridazin-5(6H)-one] | > 100 |
